Patent US20230338250A1, “Compositions Comprising One or More (Bio)-Alkanediols with Active Ingredients” (Symrise AG, priority 2020, published 2023)

Assay: Example 1.2 solubility improvement for Hydrocortisone with 1,2-alkanediols: visual appearance
Format: physicochemical
Details: 0.2 % Hydrocortisone; 1.0 % 1,2-alkanediol; after 3 days 23° C.
Procedure: Production method: A premix B was prepared by mixing solvent, solubilizer and diol. Hydrocortisone was added. The mixture was heated to 70° C. to solve the active component while stirring with a magnetic stirrer. The mixture was stirred for further 5 minutes at 70° C. Water was added and the mixture was cooled while stirring (10 min).
The visual appearance of the sample solutions was evaluated according to the following scale:
The images of the sample solutions A (containing 1,2-pentanediol), B (containing 1,2-hexanediol), C (containing 1,2-heptanediol) and D (containing 1,2-octanediol) are shown in FIG. 3.

Row | crystallization/sedimentation, transparency, turbidity compared between samples | Structure (SMILES)
1 | better solubility improving properties | CCCCCC(O)CO (stereo not drawn) [1,2-heptanediol]

Assay: Example 2 solubility of alkanediols in water (maximum water solubility, visual observation)
Format: physicochemical
Details: assessed at ambient temperature after 24 h storage at 5° C.
Description: The water solubility of a substance is the saturation mass concentration of the substance in water at a given temperature. The determination of the solubility in water relates to essentially pure substances which are stable in water and not volatile.
For the determination of the maximum water solubility of an alkanediol, water and different concentrations of the respective alkanediol were blended by stirring. […] The determination of whether the alkanediol has dissolved in water is based entirely on visual observation.

Row | Maximum solubility in water (% by weight) | Structure (SMILES)
2 | 2.5 | CCCCCC(O)CO (stereo not drawn) [1,2-heptanediol]
3 | 0.1 | CCCCCCCC(O)CO (stereo not drawn) [1,2-nonanediol]
4 | 3.6 | CCCCC(O)C(C)O (stereo not drawn) [2,3-heptanediol]
5 | 0.3 | CCCCCCC(O)C(C)O (stereo not drawn) [2,3-nonanediol]
6 | 1.5 | CCCCCC(O)C(C)O (stereo not drawn) [2,3-octanediol]
7 | 50 | CCCC(O)CO (stereo not drawn) [Hydrolite® 5 green, 1,2-pentanediol]
8 | 50 | CCCCC(O)CO (stereo not drawn) [Hydrolite® 6, 1,2-hexanediol]
9 | 0.5 | CCCCCCC(O)CO (stereo not drawn) [Hydrolite® 8, 1,2-octanediol]
